In ChEMBL document CHEMBL2176983, “Hispidin analogue davallialactone attenuates carbon tetrachloride-induced hepatotoxicity in mice” (J Nat Prod, 2012):
Activity calls are given as the source filed them.

Experiments:
Format in all cases: functional, organism-based
[1] = test system: Mus musculus; assay: Hepatoprotective activity in CCL4-induced FVB mouse assessed as decrease in COX2 expression at 2.5 to 10 mg/kg, sc administered for 3 consecutive days prior CCL4 challenge measured 12 to 24 hrs post challenge by Western blot method relative to control
[2] = test system: Mus musculus; assay: Hepatoprotective activity in FVB mouse assessed as reduction of CCL4-induced increase of serum AST level at 2.5 to 10 mg/kg, sc administered for 3 consecutive days prior CCL4 challenge measured 12 to 24 hrs post challenge
[3] = test system: Mus musculus; assay: Hepatoprotective activity in CCL4-induced FVB mouse assessed as decrease in serum TNFalpha level at 2.5 to 10 mg/kg, sc administered for 3 consecutive days prior CCL4 challenge measured 12 to 24 hrs post challenge by ELISA relative to control
[4] = test system: Mus musculus; assay: Hepatoprotective activity in CCL4-induced FVB mouse assessed as effect on CYP2E1 expression at 2.5 to 10 mg/kg, sc administered for 3 consecutive days prior CCL4 challenge measured 12 to 24 hrs post challenge by Western blot method relative to control
[5] = test system: Mus musculus; assay: Hepatoprotective activity in FVB mouse assessed as reduction of CCL4-induced increase of serum ALT level at 2.5 to 10 mg/kg, sc administered for 3 consecutive days prior CCL4 challenge measured 12 to 24 hrs post challenge
[6] = test system: Mus musculus; assay: Hepatoprotective activity in CCL4-induced FVB mouse assessed as reduction in serum MDA level at 2.5 to 10 mg/kg, sc administered for 3 consecutive days prior CCL4 challenge measured 12 to 24 hrs post challenge relative to control
[7] = test system: Mus musculus; assay: Hepatoprotective activity in CCL4-induced FVB mouse assessed as decrease in iNOS expression at 2.5 to 10 mg/kg, sc administered for 3 consecutive days prior CCL4 challenge measured 12 to 24 hrs post challenge by Western blot method relative to control
[8] = test system: Mus musculus; assay: Hepatoprotective activity in CCL4-induced FVB mouse assessed as reduction in liver necrosis at 10 mg/kg, sc administered for 3 consecutive days prior CCL4 challenge measured 12 hrs post challenge by hematoxylin/eosin-staining method relative to control; set-up: dose 10 mg/kg
[9] = test system: Mus musculus; assay: Hepatoprotective activity in CCL4-induced FVB mouse assessed as increase in CYP2E1 p-nitrophenol activity at 2.5 to 10 mg/kg, sc administered for 3 consecutive days prior CCL4 challenge measured 12 to 24 hrs post challenge relative to control
[10] = test system: Mus musculus; assay: Hepatoprotective activity in CCL4-induced FVB mouse assessed as reduction in ROS level at 10 mg/kg, sc administered for 3 consecutive days prior CCL4 challenge measured 12 to 24 hrs post challenge by DHE-labeling method relative to control; set-up: dose 10 mg/kg
[11] = test system: Mus musculus; assay: Hepatoprotective activity in CCL4-induced FVB mouse assessed as restoration of Cu/Zn SOD expression at 2.5 to 10 mg/kg, sc administered for 3 consecutive days prior CCL4 challenge measured 12 to 24 hrs post challenge by Western blot method relative to control
[12] = test system: Mus musculus; assay: Hepatoprotective activity in CCL4-induced FVB mouse assessed as reduction in liver necrosis at 2.5 to 10 mg/kg, sc administered for 3 consecutive days prior CCL4 challenge measured 12 to 24 hrs post challenge by hematoxylin/eosin-staining method relative to control
[13] = test system: Mus musculus; assay: Hepatoprotective activity in CCL4-induced FVB mouse assessed as decrease in cleaved caspase3-positive hepatocytes at 2.5 to 10 mg/kg, sc administered for 3 consecutive days prior CCL4 challenge measured 24 hrs post challenge by immunofluorescence staining method relative to control; conditions: Hepatocyte
[14] = test system: Mus musculus; assay: Hepatoprotective activity in sc dosed CCL4-induced FVB mouse assessed as reduction in liver necrosis at administered for 3 consecutive days prior CCL4 challenge measured 24 hrs post challenge by hematoxylin/eosin-staining method relative to control
[15] = test system: Mus musculus; assay: Hepatoprotective activity in CCL4-induced FVB mouse assessed as increase in HO-1 expression at 2.5 to 10 mg/kg, sc administered for 3 consecutive days prior CCL4 challenge measured 12 to 24 hrs post challenge by Western blot method relative to control
[16] = test system: Mus musculus; assay: Hepatoprotective activity in CCL4-induced FVB mouse assessed as decrease in liver macrophages at 2.5 to 10 mg/kg, sc administered for 3 consecutive days prior CCL4 challenge measured 24 hrs post challenge by immunofluorescence staining method relative to control

Measured: Activity

CC1=CC(=O)[C@H](c2c(O)cc(/C=C/c3ccc(O)c(O)c3)oc2=O)[C@@H](c2ccc(O)c(O)c2)O1
inactive: [4]
active: [1] | [2] | [3] | [5] | [6] | [7] | [8] | [9] | [10] | [11] | [12] | [13] | [14] Dose-dependent effect | [15] | [16]
